# In patent US10562920B2, “Ln(III) and Ga(III) metallacrown complexes” (The Regents of the University of Michigan, priority 2015, dated 2020):
# Values joined by “and” are separate entries in the source; they are usually repeats but may differ in a detail not shown here. Identical values can stand only once.
# Assays:
# Format in all cases: physicochemical
# [1] = Quantum yields by absolute method using an integration sphere; settings: for QLn^L/%: Ga6Ln(shi)9, solid state; for QLn^L/% NIR: solid state Ga4Ln(shi)6
# Procedure: (§1) Luminescence data were collected on samples placed into 2.4 mm i.d. quartz capillaries or quartz Suprasil cells. Emission and excitation spectra were measured on a Horiba-Jobin-YvonFluorolog 3 spectrofluorimeter equipped with either a visible photomultiplier tube (PMT) (220-800 nm, R928P; Hamamatsu), a NIR solid-state InGaAs detector cooled to 77 K (800-1600 nm, DSS-IGA020L; Jobin-Yvon), or NIR PMTs (950-1450 nm, H10330-45; 950-1650 nm, H10330-75; Hamamatsu). All spectra were corrected for instrumental functions. Luminescence lifetimes were determined under excitation at 355 nm provided by a Nd:YAG laser (YG 980; Quantel), while the signal was detected in the NIR by the aforementioned PMT (H10330-75). The output signal from the detectors was then fed to a 500 MHz bandpass digital oscilloscope (TDS 754C; Tektronix) and then transferred to a PC for treatment with Origin 8®. Luminescence lifetimes are averages of at least three independent measurements. Quantum yields were determined with a Fluorolog 3 spectrofluorimeter according to an absolute method using an integration sphere (GMP SA). Each sample was measured several times under slightly different experimental conditions. Estimated experimental error for quantum yields determination is 10%.
# [2] = Luminescence lifetimes under excitation at 355 nm; settings: for τobs/μs: Ga8Ln2(shi)8, solid state
# Procedure: as §1
# [3] = Emission spectra under ligand excitation at 350 nm; settings: Ga8Ln2(shi)8, solid state
# Procedure: as §1
# Using an excitation wavelength of 350 nm, both visible and NIR emission arising from f-f transitions of different lanthanide ions can be observed (FIG. 13). In general, quantum yields are lower for Ga8Ln2(shi)8 MCs compared to […] (Table 3) except for Ho^3+ analogues which quantum yield is increased by 1.65 times reaching 3.3(1)·10^−3%.
# [4] = Hydration number q from lifetimes in deuterated and protic solvents; settings: from kCH3OH − kCD3OD, equations of footnotes b, c, e, g
# From the text: One parameter that can be obtained from the recording of luminescence lifetimes is the hydration number q. […] This non-zero q value is particularly detrimental for the intensity of the luminescence (and to the corresponding quantum yield values) of NIR-emitting lanthanides since the overtones of high-energy vibrations of the solvent molecules create a route for non-radiative deactivation.
# [5] = Ligand triplet state from phosphorescence of Gd3+ analogues; settings: for ΔE (cm^−1), energy gap between ligand triplet state and Ln3+ emissive state: T1 = 22 170 cm^−1, Ga4Ln(shi)4; for ligand triplet state (T1, 0-0 component of phosphorescence), wavelength / ligand triplet state energy (T1, 0-0 component of phosphorescence): solid state, 77 K, excitation 350 nm
# Procedure: as §1
# Phosphorescence can be observed by recording the signal emitted from Ga4Gd(shi)4 in time-resolved mode in the solid state at 77K upon excitation at 350 nm and using a 200 μS delay after the excitation flash (FIG. 9). The 0-0 component of this band represents the energy level of the ligand's triplet state (T1=22,170 cm^−1, 451 nm) which is attributed to the energy level responsible for the main contribution of the transfer to the Ln^3+. The T1 level is sufficiently high in energy to populate the excited states of a wide range of visible and NIR-emitting Ln^3+.
# Since the Ga8Ln2(shi)8 dimer compounds were insoluble in all solvents, the solid state photophysical data alone were collected. As with the Ga4Gd(shi)4 compound, the Ga8Gd2(shi)8 complex may be used to examine the ligand-based photophysical properties. […] The solid state ligand phosphorescence was obtained at 77 K using an excitation wavelength of 350 nm and a 100 μs delay (FIG. 11). The profile of the phosphorescence is similar to that of Ga4Gd(shi)4 (FIG. 9), which was expected, since both compounds are formed by the same framework ligand, H3shi. The 0-0 transition was determined to be located at 455 nm, or 21 978 cm^−1. This triplet state energy is slightly lower than that of the Ga4Gd(shi)4 compound (22 170 cm^−1), but still is sufficiently high in energy to sensitize visible (Dy^3+, Tb^3+, Sm^3+) and/or NIR emitting (Dy^3+, Sm^3+, Ho^3+, Yb^3+, Pr^3+, Nd^3+, Er^3+) lanthanides.
# [6] = Ga8Ln2(shi)8, solid state, excitation 350 nm
substance,measurement,setting,value
[Ga8Nd2(shi)8(isophthalate)4(DMF)6].8DMF.H2O,QLn^L (%) (NIR),[1]; [6],0.99(2) %
same,τobs/μs,[2],2.46(1) μs
same,λem/nm,[3],1064 nm
[HoGa4(shi)4(H2shi)2(C5H5N)4(NO3)].(C5H5N)2 [Ga4Hoshi6],τ/μs,[2]; solid state Ga4Ln(shi)6,0.032(1) μs
[Ga4Dy(shi)4(C6H5CO2)4(C5H5N)(CH3OH)].C5H6N.C5H5N.CH3OH,QLn^L (%) (NIR),"[1]; Ga4Ln(shi)4, CD3OD",6.0(1) · 10^−2%
same,QLn^L (%) (visible),"[1]; Ga4Ln(shi)4, CD3OD",0.78(1) %
same,QLn^L (%) (NIR),"[1]; Ga4Ln(shi)4, CH3OH",2.4(1) · 10^−2%
same,QLn^L (%) (visible),"[1]; Ga4Ln(shi)4, CH3OH",0.38(1) %
same,QLn^L (%) (NIR),"[1]; Ga4Ln(shi)4, Solid",0.21(1) %
same,QLn^L (%) (visible),"[1]; Ga4Ln(shi)4, Solid",2.10(1) %
same,τobs (μs),"[2]; Ga4Ln(shi)4, CD3OD",25.5(7) μs
same,τobs (μs),"[2]; Ga4Ln(shi)4, CH3OH",12.0(1) μs
same,τobs (μs),"[2]; Ga4Ln(shi)4, Solid",21.2(2) μs
same,q (hydration number),[4],0.7^e
same,"ΔE (cm^−1), energy gap between ligand triplet state and Ln3+ emissive state",[5],1 070 cm^−1
[TbGa6(shi)7(Hshi)(H2shi)(C6H16N)3(C5H5N)2] [Ga6Tb(shi)9],QLn^L/%,[1],0.189(3) %
[Ga8Pr2(shi)8(isophthalate)4(DMF)6].8DMF.2H2O,QLn^L (%) (NIR),[1]; [6],9.3(1) · 10^−3%
same,τobs/μs,[2],0.901(6) μs
same,λem/nm,[3],1020 nm
[SmGa6(shi)7(Hshi)(H2shi)(C6H16N)3(C5H5N)2].6H2O [Ga6Sm(shi)9],QLn^L/%,[1],1.64(9) %
same,τ/μs,"[2]; Ga6Ln(shi)9, solid state",70(1) μs
[Ga8Er2(shi)8(isophthalate)4(DMF)6].8DMF.2H2O,QLn^L (%) (NIR),[1]; [6],5.7(1) · 10^−3%
same,τobs/μs,[2],5.23(2) μs
same,λem/nm,[3],1525 nm
[Ga8Dy2(shi)8(isophthalate)4(DMF)6].8DMF.2H2O,QLn^L (%) (NIR),[1]; [6],7.5(1) · 10^−2%
same,QLn^L (%) (visible),[1]; [6],0.85(1) %
same,τobs/μs,[2],15.0(1) μs
same,λem/nm,[3],575 nm
[YbGa4(shi)4(H2shi)2(C5H5N)5].(NO3).(C5H5N)2 [Ga4Ybshi6],QLn^L/% NIR,[1],0.216(6) %
same,τ/μs,[2]; solid state Ga4Ln(shi)6,2.99(2) μs
[Ga8Sm2(shi)8(isophthalate)4(DMF)6].8DMF.2H2O,QLn^L (%) (NIR),[1]; [6],0.269(3) %
same,QLn^L (%) (visible),[1]; [6],2.09(5) %
same,τobs/μs,[2],117(1) μs
same,λem/nm,[3],597 nm
[Ga4Gd(shi)4(C6H5CO2)4(C5H5N)(CH3OH)].C5H6N.C5H5N.CH3OH,"ligand triplet state (T1, 0-0 component of phosphorescence), wavelength",[5],451 nm
same,"ligand triplet state energy (T1, 0-0 component of phosphorescence)",[5],"22,170 cm^−1 and 22 170 cm^−1"
[PrGa6(shi)7(Hshi)(H2shi)(C6H16N)3(C5H5N)2].4H2O [Ga6Pr(shi)9],QLn^L/%,[1],3.7(2) · 10^−3%
same,τ/μs,"[2]; Ga6Ln(shi)9, solid state",0.063(1) μs
[ErGa4(shi)4(C6H5CO2)4(C5H5N)(CH3OH)].C5H6N.0.5C5H5N [Ga4Er(shi)4],QLn^L (%) (NIR),"[1]; Ga4Ln(shi)4, CD3OD",4.5(3)·10^−2%
same,QLn^L (%) (NIR),"[1]; Ga4Ln(shi)4, Solid",4.4(1)·10^−2%
same,τobs (μs),"[2]; Ga4Ln(shi)4, CD3OD",1.74(1) μs
same,τobs (μs),"[2]; Ga4Ln(shi)4, Solid",6.75(3) μs
same,"ΔE (cm^−1), energy gap between ligand triplet state and Ln3+ emissive state",[5],15 470 cm^−1
[ErGa4(shi)4(H2shi)2(C5H5N)5].(NO3).(C5H5N) [Ga4Ershi6],QLn^L/% NIR,[1],1.55(3) · 10^−3%
same,τ/μs,[2]; solid state Ga4Ln(shi)6,0.220(3) μs
[Ga8Gd2(shi)8(isophthalate)4(DMF)6].8DMF.H2O,"ligand triplet state (T1, 0-0 component of phosphorescence), wavelength",[5],455 nm
same,"ligand triplet state energy (T1, 0-0 component of phosphorescence)",[5],21 978 cm^−1
